What is called IC50 is the concentration that gives 50% inhibition.

The test system of assay [1] is Human neuroblastoma cells SH-SY5Y. The experiment in a line: MTT cell viability assay, SH-SY5Y. The assay is classed as cell-based. Particulars: Homo sapiens, 24 h, read-out: IC50 (MTT) ± SEM. From the text: Human neuroblastoma cells SH-SY5Y and mouse microglial cells SIM-A9 were used to evaluate cell viability, intracellular RONS, and malondialdehyde (MDA; CAS No. 542–78-9).
SH-SY5y cells were cultivated in Dulbecco's modified Eagle's medium (DMEM; Biosera, Nuaille, France) supplemented with 10% fetal bovine serum (Biosera) and 1% penicillin-streptomycin antibiotic solution (Sigma-Aldrich, St. Louis, MO, USA). The culture medium for SIM-A9 cells was further supplemented with donor horse serum (Biosera). The cells were incubated at 37 °C in a CO2 incubator (BINDER CO2 incubator CB 160, Tuttlingen, Germany) and routinely passaged by trypsinization at 75 –85% confluence.
Colorimetric Cell Viability Assay
The toxicological indices IC 50 used in the present study were measured utilizing 3-(4,5-dimethylthiazol-2-yl)-2,5-diphenyl-tetrazolium bromide (MTT) reduction assay after (1 picture or pasted object on this page, not shown here)
24 h incubation with tested compounds. […]
incubation, the cultivation medium containing serially diluted substances was aspirated and replaced with a fresh medium containing MTT at a concentration of 0.5 mg/mL and subsequently incubated at 37 °C for 1 h. […] Cell viability was assessed spectrophotometrically by the amount of formazan produced. Absorbance was measured at 570 nm with 650 nm reference wavelength on Spark (Tecan Group Ltd, Switzerland). […]
(In general: Tetrazolium dyes change colour on reduction, which living cells bring about.)

A further assay has as its system mice. Briefly: Forced swim test (FST). The assay is classed as in vivo. Particulars: 1 mg/kg i.p., vs control. The procedure: Animals and housing conditions
In all pharmacodynamic in vivo experiments, except for the Barnes maze (BM) task, adult male Albino Swiss (CD-1) mice weighing between 18 and 22 g and purchased from the Animal Breeding Farm of the Faculty of Pharmacy, Jagiellonian University Medical College were used. In BM task, C57BL/6J mice of the same weight (Animalab, Poland) were used.
Animals were housed in cages (10 mice per cage) at a constant temperature of 22 ± 2 °C, humidity of 55 ± 10%, and a light/dark (12:12) cycle (lights on at 7 AM). Before the experiments, the animals had unlimited access to food and water. […]
Briefly, mice were individually placed in a glass cylinder (25 cm high, 10 cm in diameter) containing 11 cm of water maintained at 23–25 °C and were left therein for 6 min. […] The total duration of immobility was measured during the final 4 min of a 6-min test session. […]
The four-plate apparatus (FPT; Bioseb, France) consists of a cage (25 × 18 × 16 cm) that is floored with four rectangular metal plates (11 × 8 cm). […] The number of punished crossings was counted […]
of the closed arms. […] The following parameters were measured in this test: time spent in open arms of the EPM device and the number of entries to open arms. […]

“Also recorded” adds a separate entry of the source.

Turning to `O[C@H](CNCC1CC1)[C@H](Cc1ccccc1)NC1c2ccccc2-c2ccccc21` [Compound 6], in assay [1], the 50% inhibitory concentration (IC50) stood at 3.38 ± 0.04 µM. The duration of immobility result in the assay on mice is recorded as “reduced immobility; also recorded: mild yet statistically significant antidepressant activity”.
